Active and inactive are the calls of the source. The calls are words filed in the database; no cut-off is given here.
Columns and labels:
[1] = Growth inhibition of human HL60 cells at 10 uM after 48 hrs by MTT assay; assay type: functional; conditions: HL-60, 48 h, read-out: GI
HL-60 [2] = experiment: Induction of cell differentiation of human HL60 cells at 10 uM in presence of 0.1 uM ATRA after 72 hrs by NBT dye based assay; assay type: functional
HL-60 [3] = experiment: Induction of cell differentiation of human HL60 cells at 10 uM after 72 hrs by NBT dye based assay; assay type: functional
[4] = Growth inhibition of human HL60 cells at 10 uM in presence of 0.1 uM ATRA after 48 hrs by MTT assay; assay type: functional, HL-60
Cytochrome P450 26A1 = molecular target: T1, Cytochrome P450 26A1 (Homo sapiens, UniProt O43174); experiment: Inhibition of CYP26A1 in ATRA-induced human HL60 cell microsomes incubated for 30 mins using ATRA and NADPH by HPLC method; assay type: cell-based, HL-60
T1 sequence (O43174 whole entry): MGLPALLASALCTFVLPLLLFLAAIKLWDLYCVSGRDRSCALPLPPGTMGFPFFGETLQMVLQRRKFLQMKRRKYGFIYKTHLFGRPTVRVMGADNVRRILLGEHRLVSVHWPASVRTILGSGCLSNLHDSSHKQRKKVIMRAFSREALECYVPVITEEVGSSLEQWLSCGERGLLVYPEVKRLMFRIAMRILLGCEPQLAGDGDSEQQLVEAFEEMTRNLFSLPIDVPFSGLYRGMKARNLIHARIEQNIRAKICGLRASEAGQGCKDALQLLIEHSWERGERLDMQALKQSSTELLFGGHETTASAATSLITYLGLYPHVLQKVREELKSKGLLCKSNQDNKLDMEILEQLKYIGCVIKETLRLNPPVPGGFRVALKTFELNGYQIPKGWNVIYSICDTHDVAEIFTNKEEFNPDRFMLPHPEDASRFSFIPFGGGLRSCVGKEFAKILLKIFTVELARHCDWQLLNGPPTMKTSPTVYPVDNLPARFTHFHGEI

HL-60 [5] = experiment: Induction of CYP26A1 expression in human HL60 cells at 0.1 uM after 72 hrs; assay type: functional, cell-based
HL-60 [6] = experiment: Induction of cell differentiation of human HL60 cells at 0.1 uM after 72 hrs by NBT dye based assay; assay type: functional
[7] = Growth inhibition of human HL60 cells at 0.1 uM after 48 hrs by MTT assay; assay type: functional; conditions: HL-60, 48 h, read-out: GI

Row | IC50 (Cytochrome P450 26A1) [µM] | Compound | inhibition of growth at 10 µM [1] [%] | Activity (HL-60 [2]) [%] | Activity (HL-60 [3]) [%] | growth inhibition (GI) [4] [%] | Activity (HL-60 [5]) | Activity (HL-60 [6]) [%] | inhibition of growth at 0.1 µM [7] [%]
1 | 3.09 | Cc1ccc(C(CC(=O)O)NC(=O)c2cc(C)oc2C)cc1 (configuration not stated) | 5.85 | 42.62 | 0 | 44.85 | – | – | –
2 | – | Clc1cccc(C(c2ccc3[nH]cnc3c2)n2ccnc2)c1 (configuration not stated) [LIAROZOLE] | 15.4 | 46.71 | 0 | 48.26 | – | – | –
3 | 1.87 | Cc1nn(-c2ccccc2)c(Cl)c1C(=O)NC(CC(=O)O)c1cccc(Br)c1 (configuration not stated) | 6.16 | 48.51 | 0 | 56.15 | – | – | –
4 | 2.73 | Cc1cc(C(=O)NC(CC(=O)O)c2ccc(Cl)cc2)c(C)o1 (configuration not stated) | 10.3 | 46.61 | 0 | 49.53 | – | – | –
5 | – | CC1=C(/C=C/C(C)=C/C=C/C(C)=C/C(=O)O)C(C)(C)CCC1 [TRETINOIN] | – | – | – | – | Active | 26.07 | 23.8

From ChEMBL document CHEMBL3397030, “Synthesis and biological evaluation of 3-phenyl-3-aryl carboxamido propanoic acid derivatives as small molecule inhibitors of retinoic acid 4-hydroxylase (CYP26A1)” (Bioorg Med Chem, 2015)
